Test results from ChEMBL document CHEMBL1127976, “Synthesis and anti-HCMV activity of 9-[[(ethoxyhydroxyphosphinyl)methoxy]methoxy]guanine, an isostere of PMEG monoethyl ester” (Bioorg Med Chem Lett, 1994).
≈ marks a conversion by molar mass, not a printed value.

Experiments:
[1] = Therapeutic index measured as ratio of EC50 for Davis/CC50 for HEL 299; conditions: human; read-out: Therapeutic index
Human betaherpesvirus 5 [2] = assay: Concentration of compound required to inhibit 50% of HCMV strain Davis induced cytopathic effect; format: functional, organism-based
HEL 299 = assay: Compound was tested for its cytotoxicity against human embryonic lung fibroblast cells (HEL 299) by MTT dye reduction assay; format: functional
Human betaherpesvirus 5 [3] = assay: Concentration of compound required to inhibit 50% of HCMV strain AD-169 induced cytopathic effect; format: functional, organism-based
[4] = Therapeutic index measured as ratio of […]; conditions: human; read-out: Therapeutic index

| Structure (SMILES) | selectivity ratio [1] | EC50 (Human betaherpesvirus 5 [2]) [µg/mL] | CC50 (HEL 299) [µg/mL] | EC50 (Human betaherpesvirus 5 [3]) [µg/mL] | selectivity ratio [4] |
| --- | --- | --- | --- | --- | --- |
| CCOP(=O)(O)COCOn1cnc2c(O)nc(N)nc21 | > 700 | 0.6 (≈ 1.88 µM) | > 400 | 1.8 (≈ 5.64 µM) | > 200 |
| Nc1nc2c(ncn2COC(CO)CO)c(=O)[nH]1 [GANCICLOVIR] | > 500 | 0.8 (≈ 3.13 µM) | > 400 | 1.9 (≈ 7.44 µM) | > 200 |
